The results in this text go back to US7638509B2, “Diene compounds and formulations” (priority 2003, dated 2009).

Positions count from the first letter of the chain named.

In one assay the test system is PSA. The assay is described as follows: PSA expression in LNCaP cells, Western blot. In kind it is cell-based, human. As to conditions: 48 h, 1 μM compound + 1 nM DHT. On the technique in general: A western blot detects proteins with antibodies after separation by electrophoresis.
The test system of the next assay is LNCaP cells. Nature of the assay: LNCaP cell growth, cell count by hemocytometer. In kind it is cell-based, human.
Assay [1] concerns the target T1, AR (Homo sapiens, UniProt P10275, T878A).
T1 construct: LNCaP without transfection; endogenous in cells; host or cells: LNCaP
T1 sequence (P10275 1-920 T878A): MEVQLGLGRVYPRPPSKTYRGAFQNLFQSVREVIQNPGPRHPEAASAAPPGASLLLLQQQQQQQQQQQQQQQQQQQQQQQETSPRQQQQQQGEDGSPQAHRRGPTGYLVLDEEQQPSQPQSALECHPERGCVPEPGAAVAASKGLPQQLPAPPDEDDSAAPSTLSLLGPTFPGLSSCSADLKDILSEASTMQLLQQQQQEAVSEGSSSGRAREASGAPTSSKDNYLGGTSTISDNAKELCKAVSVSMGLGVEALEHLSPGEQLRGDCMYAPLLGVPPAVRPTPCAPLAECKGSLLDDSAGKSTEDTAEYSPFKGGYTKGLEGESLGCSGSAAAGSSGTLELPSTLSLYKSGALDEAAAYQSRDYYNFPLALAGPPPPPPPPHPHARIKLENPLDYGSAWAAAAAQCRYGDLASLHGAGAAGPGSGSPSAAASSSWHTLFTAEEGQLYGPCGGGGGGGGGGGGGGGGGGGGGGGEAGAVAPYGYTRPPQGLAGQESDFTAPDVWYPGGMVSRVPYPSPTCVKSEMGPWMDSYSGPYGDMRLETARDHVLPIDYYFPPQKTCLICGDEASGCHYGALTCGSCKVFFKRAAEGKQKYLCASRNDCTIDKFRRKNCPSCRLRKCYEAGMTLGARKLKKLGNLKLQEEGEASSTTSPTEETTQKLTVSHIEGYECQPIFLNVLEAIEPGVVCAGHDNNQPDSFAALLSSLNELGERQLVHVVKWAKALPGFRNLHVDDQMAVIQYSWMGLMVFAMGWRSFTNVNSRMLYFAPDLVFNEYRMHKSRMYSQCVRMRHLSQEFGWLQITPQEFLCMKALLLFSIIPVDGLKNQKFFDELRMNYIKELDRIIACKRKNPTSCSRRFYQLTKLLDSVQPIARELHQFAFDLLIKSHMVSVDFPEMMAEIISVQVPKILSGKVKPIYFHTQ
Nature of the assay: Adiol-induced AR transcription, MMTV-Luc in LNCaP cells. The settings on record: 2.5 nM Adiol, compound at 1 μM. Type of assay: cell-based. How it is done: Cell Culture, Transfection, and Reporter Gene Assay. The human prostate cancer cell lines, LNCaP, PC-3, and DU145, and non-prostate cancer cell line COS-1 were maintained in RPMI or Dulbecco's modified Eagle's medium (DMEM) (Life Technologies) supplemented with 10% fetal bovine serum (FBS). Transfections and luciferase (Luc) assays were performed as previously described (Miyamoto, H., Yeh, S., Wilding, G. & Chang, C. (1998) Proc. Natl. Acad. Sci. USA 95, 7379-7384; Miyamoto, H., Rahman, M., Takatera, H., Kang, H.-Y., Yeh, S., Chang, H.-C., Nishimura, K., Fujimoto, N. & Chang, C. (2002) J. Biol. Chem. 277, 4609-4617). Briefly, cells seeded to reach a density of 50-60% confluence in 12 well tissue culture plates were transfected with 1.5 μg of DNA according to “SuperFect transfection” instructions (Qiagen). After 2-3 h incubation, cells were treated with medium supplemented with charcoal-stripped FBS containing either ethanol or ligands for 24 h. The cells were then harvested and whole cell extracts were used for Luc assay. The Luc activity was determined using a Dual-Luciferase Reporter Assay System (Promega) and luminometer.
Effect of ADEK on AR Transcription. […] (set as 100%). Values were obtained from the mean±SD of at least three determinations.

In assay [2] the target is T2, AR (Homo sapiens, UniProt P10275).
T2 construct: expressed in transfected cells; host or cells: PC-3
T2 sequence (P10275 1-920): T1 sequence (P10275 1-920 T878A) with A878T
The assay is described as follows: Steroid hormone specificity, androgenic activity in PC-3 cells. In kind it is cell-based. The settings on record: PC-3, ADEK at 0.01 mM, 0.1 mM and 1.0 mM, 24 h. The protocol:
Cell Culture, Transfection, and Reporter Gene Assay. The human prostate cancer cell lines, LNCaP, PC-3, and DU145, and non-prostate cancer cell line COS-1 were maintained in RPMI or Dulbecco's modified Eagle's medium (DMEM) (Life Technologies) supplemented with 10% fetal bovine serum (FBS). Transfections and luciferase (Luc) assays were performed as previously described (Miyamoto, H., Yeh, S., Wilding, G. & Chang, C. (1998) Proc. Natl. Acad. Sci. USA 95, 7379-7384; Miyamoto, H., Rahman, M., Takatera, H., Kang, H.-Y., Yeh, S., Chang, H.-C., Nishimura, K., Fujimoto, N. & Chang, C. (2002) J. Biol. Chem. 277, 4609-4617). Briefly, cells seeded to reach a density of 50-60% confluence in 12 well tissue culture plates were transfected with 1.5 μg of DNA according to “SuperFect transfection” instructions (Qiagen). […] The Luc activity was determined using a Dual-Luciferase Reporter Assay System (Promega) and luminometer.
Steroid Hormone Specificity of ADEK. To characterize the steroid hormone activity of ADEK, PC-3 cells were transfected with steroid receptor/reporter (progesterone receptor (PR)/MMTV-Luc, glucocorticoid receptor (GR)/MMTV-Luc, or estrogen receptor (ER)/ERE-Luc) and analyzed for expression of the Luc reporter gene. […] The Luc activity was measured relative to that of ETOH treatment (set as 1-fold). […]

Experimental for PSA: Western Blot. […] An antibody for -actin (Santa Cruz Biotechnology) was used as the internal control. Blots were quantitated by Collage software (Fotodyne).
The 33-kDa protein was quantitated. β-Actin expression was used as an internal control. […] The mean±SD of three separate experiments was determined. […] Total cell number was counted by hemocytometer. The mean of at least three determinations was determined.

`CC(=O)O[C@H]1C=C[C@@]2(C)C(=CC[C@@H]3[C@@H]2CC[C@@]2(C)[C@H]3CCC23OCCO3)C1` [ADEK, 3β-acetoxy-17,17-ethylenedioxyandrosta-1,5-diene]: the “DHT-induced PSA expression decreased to (DHT = 100%)” value in the assay with PSA is given as 49%. Moreover, the “effect on LNCaP cell growth, DHT alone or compound with DHT (in words)” value with LNCaP cells (1 nM DHT, 1 μM compound in presence of DHT) is “antagonized this DHT effect”. In the assay on LNCaP cells (1 μM compound, no DHT), the “effect on LNCaP cell growth in the absence of androgen (in words)” value was “marginally increased growth”. In addition, the “repression of Adiol-induced AR transcription” value on AR [1] is around 58%. Further, the “androgenic activity (in words)” value on AR [2] is reported as “no significant”.
